Laboratory results from patent US11938110B2, “Use of verapamil for the treatment of SARS-Cov-2 induced COVID-19” (priority 2020, dated 2024).
Where a name gives a salt, the structure may show the parent alone.

Tests used:
[1] = system: COVID-19 patients with hypertension; conditions: oral administration; cited from earlier work
[2] = system: SARS-COV-2 (USA-WA1/2020); conditions: Huh7 cells, MOI 0.1, 6.25, 12.5, 25 and 50 uM, compared to DMSO, 48 hours after infection
[3] = system: patients with Chronic obstructive pulmonary disease (COPD); conditions: nasal spray

| Structure (SMILES) | case fatality rate of patients with hypertension [1] | viral RNA in the supernatant [2] | toxicity against Huh7 cells (Huh7 cells) | blood oxygen pressure [3] | correction of blood pH [3] | oxygen saturation after inhalation ([3]; after inhalation) | oxygen saturation before inhalation ([3]; baseline) |
| --- | --- | --- | --- | --- | --- | --- | --- |
| CCOC(=O)C1=C(COCCN)NC(C)=C(C(=O)OC)C1c1ccccc1Cl (stereo not shown) [amlodipine besylate] | distinctly reduced | – | – | – | – | – | – |
| COc1ccc(CCN(C)CCCC(C#N)(c2ccc(OC)c(OC)c2)C(C)C)cc1OC (stereo not shown) [verapamil hydrochloride] | – | dose-dependent reduction | no significant toxicity | improved | improved | 95.75±14.57 | 91.2±12.15 |
